In general, EC50 refers to the concentration giving half of the maximal effect.

This note sets out measurements from patent publication US12673954B2 (BRISTOL-MYERS SQUIBB COMPANY, priority 2021, dated 2026).

For experiment [1], the system named is IRF pathway, THP1-Dual™ cells. In words: STING reporter assay in THP1-Dual cells, IRF pathway (Lucia luciferase, QUANTI-Luc). In kind it is cell-based, human. Particulars: THP1-Dual cells, 10% human plasma, 20 hours, Lucia luciferase, 100% activation = 100 μM cGAMP, read-out: IRF (EC50 μM). From the text: (§1) THP1-Dual™ cells were derived from the human THP-1 monocyte cell line by stable integration of two inducible reporter constructs. To this end, THP1-Dual™ cells allow the simultaneous study of the NF-κB pathway, by monitoring the activity of SEAP, and the IRF pathway by assessing the activity of a secreted luciferase (Lucia). Both reporter proteins are readily measurable in the cell culture supernatant when using QUANTI-Blue™, a SEAP detection reagent, and QUANTI-Luc™, a luciferase detection reagent.
(§2) THP1-Dual™ cells induce the activation of NF-κB in response to STING agonists. They also trigger the IRF pathway upon stimulation with STING agonists, such as cGAMP. Here, the THP-1-Dual cells were used to assess STING specific binders for function on the cellular level.
(§3) Serial dilutions of compounds in DMSO were added to low volume 384 well plates at 100 nl/well using an ECHO acoustic dispenser (Labcyte, model 550) to achieve final starting concentration of 100 μM in cell suspension. […] One column of the plate was reserved for treatment with cGAMP at 100 μM for 100% activation calculation and one column for no treatment (DMSO only) for baseline activation. Plates were then incubated in 37° C. incubator at 5% CO2 for 20 hours.
(§4) Plates were read on the Envision (Perkin Elmer) at 620 nm wavelength (OD620). In the luciferase assay, 5 μl of Quantiluc (Invivogen, Rep-qlc2) is added to white 384 well plates seeded with THP1 cells and read at 5 minutes on the Envision (Perkin Elmer) using a luminescence protocol (RLU). 100% activation was determined by value (RLU) of THP-1 Dual STING cells stimulated with 100 μM cGAMP (Invivogen, cat #TLRL-NACGA23-5).
For orientation: Reporter assays use an easily measured gene product as a stand-in for the process of interest.

The test system of experiment [2] is NF-κB pathway, THP1-Dual™ cells. In words: STING reporter assay in THP1-Dual cells, NF-κB pathway (SEAP, QUANTI-Blue). In kind it is cell-based, human. To be noted: THP1-Dual cells, 10% human plasma, 20 hours, SEAP, 100% activation = 100 μM cGAMP, read-out: NFkB (EC50 μM).
Description: as §1, §2, §3, §4

Structures are written as SMILES. Like-named read-outs stand apart in the source and are kept apart here.

Take `Cc1cc(C(=O)O)c2oc(C(C)NC(=O)c3cnn4cccnc34)cc2c1` (racemic) [EXAMPLE 161, 5-Methyl-2-(1-(pyrazolo[1,5-a]pyrimidine-3-carboxamido)ethyl)benzofuran-7-carboxylic acid (racemic)]: the EC50 in experiment [1] (Homo sapiens, THP1-Dual, 20 h) was found to be 108 µM; in experiment [2] (Homo sapiens, THP1-Dual, 20 h), 138 µM.
In the case of `Cc1cc(C(=O)O)c2oc(C(C)NC(=O)c3cnn4cccnc34)cc2c1` (racemic) [EXAMPLE 186, 5-Methyl-2-(1-(pyrazolo[1,5-a]pyrimidine-3-carboxamido)ethyl)benzofuran-7-carboxylic acid], the EC50 is 84 µM in experiment [1] and more than 100 µM in experiment [2].
Take `CCC(C)OC(=O)c1cccc2cc(CN3CCc4ccncc4C3=O)oc12` (racemic) [EXAMPLE 208, Sec-butyl 2-((1-oxo-3,4-dihydro-2,7-naphthyridin-2(1H)-yl)methyl)benzofuran-7-carboxylate]: the EC50 stood at 33 µM in experiment [1] (Homo sapiens, THP1-Dual, 20 h) and 31 µM in experiment [2] (Homo sapiens, THP1-Dual, 20 h).
The corresponding values for `CCOC(OC(=O)c1cccc2cc(CN3CCc4ccncc4C3=O)oc12)C(F)(F)F` (racemic) [EXAMPLE 210, 1-Ethoxy-2,2,2-trifluoroethyl 2-((1-oxo-3,4-dihydro-2,7-naphthyridin-2(1H)-yl)methyl)benzofuran-7-carboxylate] are 30 µM and 25 µM.
Regarding `CCOC(=O)OC(C)OC(=O)c1cc(Cl)cc2cc(CNC(=O)c3cnn4cccnc34)oc12` (racemic) [EXAMPLE 261, 1-((Ethoxycarbonyl)oxy)ethyl 5-chloro-2-((pyrazolo[1,5-a]pyrimidine-3-carboxamido)methyl)benzofuran-7-carboxylate], the EC50 is 0.95 µM in experiment [1] (Homo sapiens, THP1-Dual, 20 h) and 0.82 µM in experiment [2] (Homo sapiens, THP1-Dual, 20 h).
Regarding `COc1cc(C(=O)OC(OC)C(F)(F)F)c2oc(CNC(=O)c3cnn4cccnc34)cc2c1` (racemic) [EXAMPLE 281, 2,2,2-Trifluoro-1-methoxyethyl 5-methoxy-2-((pyrazolo[1,5-a]pyrimidine-3-carboxamido)methyl)benzofuran-7-carboxylate], the concentration for a half-maximal effect (EC50) was 11 µM in experiment [1] (Homo sapiens, THP1-Dual, 20 h) and 14 µM in experiment [2] (Homo sapiens, THP1-Dual, 20 h).
The corresponding values for `COC(=O)c1cc(C)cc2cc(C(C)NC(=O)c3cnn4cccnc34)oc12` (racemic) [Example 96, Methyl 5-methyl-2-(1-(pyrazolo[1,5-a]pyrimidine-3-carboxamido)ethyl)benzofuran-7-carboxylate (racemic)] are 1.7 µM and 2 µM.
On the same counts, the results for `COC(=O)c1cc(C)cc2c(Cl)c(C(C)NC(=O)c3cnn4cccnc34)oc12` (single isomer, unassigned) [EXAMPLE 120, Methyl-3-chloro-5-methyl-2-(1-(pyrazolo[1,5-a]pyrimidine-3-carboxamido)ethyl)benzofuran-7-carboxylate] are 2.7 µM and 3.2 µM.
Consider `CC(OC(=O)c1cccc2cc(CN3CCc4ccncc4C3=O)oc12)C(F)(F)F` (single isomer, unassigned) [EXAMPLE 307, 1,1,1-Trifluoropropan-2-yl 2-((1-oxo-3,4-dihydro-2,7-naphthyridin-2(1H)-yl)methyl)benzo-furan-7-carboxylate], for which the EC50 in experiment [1] turned out to be 7.7 µM; in experiment [2], 8.9 µM.
With `CC(OC(=O)c1cccc2cc(CN3CCc4ccncc4C3=O)oc12)C(F)(F)F` (single isomer, unassigned) [EXAMPLE 308, 1,1,1-Trifluoropropan-2-yl 2-((1-oxo-3,4-dihydro-2,7-naphthyridin-2(1H)-yl)methyl)benzo-furan-7-carboxylate], the EC50 in experiment [1] was 25 µM; in experiment [2], 30 µM.
For the compound `CC(OC(=O)c1ccc(F)c2cc(CNC(=O)c3cnn4cccnc34)oc12)C(F)(F)F` (single isomer, unassigned) [EXAMPLE 309, 1,1,1-Trifluoropropan-2-yl 4-fluoro-2-((pyrazolo[1,5-a]pyrimidine-3-carboxamido)methyl)benzofuran-7-carboxylate], the values for the EC50 in experiment [1] and in experiment [2] were 6.1 µM and 7.2 µM, respectively.
Turning to `CC(OC(=O)c1ccc(F)c2cc(CNC(=O)c3cnn4cccnc34)oc12)C(F)(F)F` (single isomer, unassigned) [EXAMPLE 310, 1,1,1-Trifluoropropan-2-yl 4-fluoro-2-((pyrazolo[1,5-a]pyrimidine-3-carboxamido)methyl)benzofuran-7-carboxylate], the EC50 in experiment [1] was determined as 37 µM; in experiment [2], 56 µM.
On to `COC(OC(=O)c1cc(F)cc2cc(CNC(=O)c3cnc4cccnn34)oc12)C(F)(F)F` (single isomer, unassigned) [EXAMPLE 313, 2,2,2-Trifluoro-1-methoxyethyl 5-fluoro-2-((imidazo[1,2-b]pyridazine-3-carboxamido)methyl)benzofuran-7-carboxylate], for which the EC50 in experiment [1] (Homo sapiens, THP1-Dual, 20 h) was 3.1 µM; in experiment [2] (Homo sapiens, THP1-Dual, 20 h) it was 3 µM.
For the compound `COC(OC(=O)c1cc(F)cc2cc(CNC(=O)c3cnc4cccnn34)oc12)C(F)(F)F` (single isomer, unassigned) [EXAMPLE 314, 2,2,2-Trifluoro-1-methoxyethyl 5-fluoro-2-((imidazo[1,2-b]pyridazine-3-carboxamido)methyl)benzofuran-7-carboxylate], the EC50 in experiment [1] and in experiment [2] was 1.9 µM in each case.
`CC(OC(=O)c1cc(F)cc2cc(CNC(=O)c3cnc4cccnn34)oc12)C(F)(F)F` (single isomer, unassigned) [EXAMPLE 315, 1,1,1-Trifluoropropan-2-yl 5-fluoro-2-((imidazo[1,2-b]pyridazine-3-carboxamido)methyl)benzofuran-7-carboxylate]: the EC50 was found to be 2.1 µM in experiment [1] and 1.9 µM in experiment [2].
Regarding `CC(OC(=O)c1cc(F)cc2cc(CNC(=O)c3cnc4cccnn34)oc12)C(F)(F)F` (single isomer, unassigned) [EXAMPLE 316, 1,1,1-Trifluoropropan-2-yl 5-fluoro-2-((imidazo[1,2-b]pyridazine-3-carboxamido)methyl)benzofuran-7-carboxylate], the EC50 in experiment [1] is 4.8 µM; in experiment [2], 5.9 µM.
`CC(OC(=O)c1cc(F)cc2cc(CNC(=O)c3cnn4cccnc34)oc12)C(F)(F)F` (single isomer, unassigned) [EXAMPLE 317, 1,1,1-Trifluoropropan-2-yl 5-fluoro-2-((pyrazolo[1,5-a]pyrimidine-3-carboxamido)methyl)benzofuran-7-carboxylate]: the figures for the EC50 in experiment [1] and in experiment [2] were 1.4 µM and 1.3 µM, respectively.
On the same counts, the results for `CC(OC(=O)c1cc(F)cc2cc(CNC(=O)c3cnn4cccnc34)oc12)C(F)(F)F` (single isomer, unassigned) [EXAMPLE 318, 1,1,1-Trifluoropropan-2-yl 5-fluoro-2-((pyrazolo[1,5-a]pyrimidine-3-carboxamido)methyl)benzofuran-7-carboxylate] are 4.3 µM and 4.5 µM.
For `COC(OC(=O)c1cc(F)cc2cc(CNC(=O)c3cnn4cccnc34)oc12)C(F)(F)F` (single isomer, unassigned) [EXAMPLE 319, 2,2,2-Trifluoro-1-methoxyethyl 5-fluoro-2-((pyrazolo[1,5-a]pyrimidine-3-carboxamido)methyl)benzofuran-7-carboxylate], the EC50 in experiment [1] (Homo sapiens, THP1-Dual, 20 h) amounted to 2.4 µM; in experiment [2] (Homo sapiens, THP1-Dual, 20 h), 2.5 µM.
As for `COC(OC(=O)c1cc(F)cc2cc(CNC(=O)c3cnn4cccnc34)oc12)C(F)(F)F` (single isomer, unassigned) [EXAMPLE 320, 2,2,2-Trifluoro-1-methoxyethyl 5-fluoro-2-((pyrazolo[1,5-a]pyrimidine-3-carboxamido)methyl)benzofuran-7-carboxylate], the EC50 in experiment [1] and in experiment [2] was 1.4 µM each time.
Take `O=C(OC1CC(F)(F)C1(F)F)c1cc(F)cc2cc(CNC(=O)c3cnn4cccnc34)oc12` (single isomer, unassigned) [EXAMPLE 321, 2,2,3,3-Tetrafluorocyclobutyl 5-fluoro-2-((pyrazolo[1,5-a]pyrimidine-3-carboxamido)methyl)benzofuran-7-carboxylate]: the EC50 in experiment [1] is 0.3 µM; in experiment [2], 0.38 µM.
Turning to `O=C(OC1CC(F)(F)C1(F)F)c1cc(F)cc2cc(CNC(=O)c3cnn4cccnc34)oc12` (single isomer, unassigned) [EXAMPLE 322, 2,2,3,3-Tetrafluorocyclobutyl 5-fluoro-2-((pyrazolo[1,5-a]pyrimidine-3-carboxamido)methyl)benzofuran-7-carboxylate], the EC50 in experiment [1] came to 2.2 µM; in experiment [2] it was 3.3 µM.
